# According to patent publication US5919811A, “3-Substituted-indole-2-carboxylic acid derivatives as excitatory amino acid antagonists” (Glaxo Wellcome S.p.A., priority 1995, dated 1999):
# Where a name gives a salt, the structure may show the parent alone.
# System: NMDA induced convulsions
# Experiment: inhibition of NMDA induced convulsions in the mouse (procedure of Chiamulera C et al)
# Format: in vivo
# Details: iv, 0.1 mg/kg I.V., generalized seizures induced by intracerebroventricular injection of NMDA in mice
# Method: The ability of compounds of the invention to inhibit NMDA induced convulsions in the mouse was determined using the procedure of Chiamulera C et al. Psychpharmacology 1990, 102,-551-552. In this test the ability of the compound to inhibit the generalized seizures induced by an intracerebroventricular injection of NMDA in mice was examined. Thus the % inhibition of the NMDA induced convulsions when a compound of the invention was given the dose of 0.1 mg/kg I.V. was determined and representative results obtained for compounds of the invention are given in the following table.
row,Structure (SMILES),inhibition in vivo at 0.1 mg/kg [%]
1,"NC(=O)NCc1ccc(NC(=O)/C=C/c2c(C(=O)O)[nH]c3cc(Cl)cc(Cl)c23)cc1 [Example 9, (E)4,6-dichloro-3-[2'-(4'-ureidomethylphenylcarbamoyl)ethenyl]-1-H-indole 2-carboxylic acid,sodium salt]",60
2,"CCNC(=O)NCc1ccc(NC(=O)/C=C/c2c(C(=O)O)[nH]c3cc(Cl)cc(Cl)c23)cc1 [Example 12, (E)4,6-dichloro-3-[2'-(4'-ethylureidomethylphenylcarbamoyl)ethenyl]-1-H-indole 2-carboxylic acid,sodium salt]",50
3,"CCNC(=S)NCc1ccc(NC(=O)/C=C/c2c(C(=O)O)[nH]c3cc(Cl)cc(Cl)c23)cc1 [Example 14, (E)4,6-dichloro-3-[2'-(4'-ethylthioureidomethylphenylcarbamoyl)ethenyl]-1-H-indole 2-carboxylic acid]",30
4,"O=C(/C=C/c1c(C(=O)O)[nH]c2cc(Cl)cc(Cl)c12)Nc1ccc(CNC(=O)Nc2ccccc2)cc1 [Example 16, (E)4,6-dichloro-3-[2'-(4'-phenylureidomethylphenylcarbamoyl)ethenyl]-1-H-indole 2-carboxylic acid]",30
5,"NC(=O)NCCc1ccc(NC(=O)/C=C/c2c(C(=O)O)[nH]c3cc(Cl)cc(Cl)c23)cc1 [Example 19, 4,6-dichloro-3-[(E)-2'-(4'-ureidoethylphenylcarbamoyl)ethenyl]-1-H-indole 2-carboxylic acid,sodium salt]",30
6,"O=C(/C=C/c1c(C(=O)O)[nH]c2cc(Cl)cc(Cl)c12)Nc1ccc(CNC(=O)NC2CC2)cc1 [Example 31, (E)-4,6-dichloro-3-[-2'-(4'-cyclopropyl-ureido-methyl-phenylcarbamoyl)vinyl]-1H-indole-2-carboxylic acid sodium salt]",40
7,"COc1ccc(NC(=O)NCc2ccc(NC(=O)/C=C/c3c(C(=O)O)[nH]c4cc(Cl)cc(Cl)c34)cc2)cc1 [Example 37, (E)-4,6-dichloro-3-{2'-[4'-(4""-methoxy-phenyl-ureidomethyl)-phenylcarbamoyl]ethenyl}-1H-indole-2-carboxylic acid]",50
8,"O=C(/C=C/c1c(C(=O)O)[nH]c2cc(Cl)cc(Cl)c12)Nc1ccc(CNC(=O)NC2CCOCC2)cc1 [Example 40, sodium salt]",40
9,CCOC(=O)CNC(=O)NCc1ccc(NC(=O)/C=C/c2c(C(=O)OCC)[nH]c3cc(Cl)cc(Cl)c23)cc1 [Example 43],40
10,"O=C(O)CNC(=O)NCc1ccc(NC(=O)/C=C/c2c(C(=O)O)[nH]c3cc(Cl)cc(Cl)c23)cc1 [Example 44, (E)-4,6-dichloro-3-[2'-(4'-carboxymethylureido-methyl-phenylcarbamoyl)ethenyl]-1H-indole-2-carboxylic acid]",40

# Molecular target: T1, strychnine insensitive glycine binding site located on the NMDA receptor complex (Rattus norvegicus, UniProt P35439)
# T1 construct: from tissue; host or cells: central nervous system membranes, rat
# Experiment: affinity for strychnine insensitive glycine binding site located on the NMDA receptor complex (procedure of Kishimoto H. et al)
# Details: not given
# Method: The potent and selective action of the compound of the invention at the strychnine- insensitive glycine binding site present on the NMDA receptor complex may be readily determined using conventional test procedures. Thus the ability to bind at the strychnine insensitive glycine binding site was determined using the procedure of Kishimoto H et al. J Neurochem 1981, 37 1015-1024. The selectivity of the action of compounds of the invention for the strychnine insensitive glycine site was confirmed in studies at other ionotropic known excitatory amino acid receptors.
# The affinity of a compound of the invention for strychnine insensitive glycine binding site located on the NMDA receptor complex was determined using the procedure of Kishimoto H. et al J. Neurochem 1981, 37, 1015-1024. The pKi with representative compounds of the invention are given in […]
row,Ki [nM],Structure (SMILES)
1,2.51,"NC(=O)NCc1ccc(NC(=O)/C=C/c2c(C(=O)O)[nH]c3cc(Cl)cc(Cl)c23)cc1 [Example 8, (E)4,6-dichloro-3-[2'-(4'-ureidomethylphenylcarbamoyl)ethenyl]-1-H-indole2-carboxylic acid]"
2,20,"O=C(/C=C/c1c(C(=O)O)[nH]c2cc(Cl)cc(Cl)c12)Nc1ccc(CNC(=O)Nc2ccccc2)cc1 [Example 16, (E)4,6-dichloro-3-[2'-(4'-phenylureidomethylphenylcarbamoyl)ethenyl]-1-H-indole 2-carboxylic acid]"
3,1.82,"NC(=O)Nc1ccc(NC(=O)/C=C/c2c(C(=O)O)[nH]c3cc(Cl)cc(Cl)c23)cc1 [Example 21, 4,6-dichloro-3-[(E)-2'-(4'-ureidophenylcarbamoyl)ethenyl]-1-H-indole2-carboxylic acid,]"
4,39.8,"O=C(/C=C/c1c(C(=O)O)[nH]c2cc(Cl)cc(Cl)c12)Nc1ccc(NC(=O)Nc2ccccc2)cc1 [Example 24, (E)-4,6-dichloro-3-[2'-(4'-phenyl-ureido-phenylcarbamoyl)ethenyl]-1H-indole-2-carboxylic acid]"
5,3.89,"CN(C)C(=O)Nc1ccc(NC(=O)/C=C/c2c(C(=O)O)[nH]c3cc(Cl)cc(Cl)c23)cc1 [Example 27, (E)-4,6-dichloro-3-[2'-(4'-dimethyl-ureido-phenylcarbamoyl)ethenyl]-1H-indole-2-carboxylic acid]"
6,2.45,NC(=O)NCc1cccc(NC(=O)/C=C/c2c(C(=O)O)[nH]c3cc(Cl)cc(Cl)c23)c1 [Example 34]
7,9.12,O=C(/C=C/c1c(C(=O)O)[nH]c2cc(Cl)cc(Cl)c12)Nc1ccc(CNC(=O)NC2CCOCC2)cc1 [Example 39]
8,3.16,"O=C(/C=C/c1c(C(=O)O)[nH]c2cc(Cl)cc(Cl)c12)Nc1ccc(NC(=O)NC2CC2)cc1 [Example 50, 4,6-dichloro-3-[(E)-2'-(4'-cyclopropylureidophenylcarbamoyl)ethenyl]-1-H-indole-2-carboxylic acid sodium salt]"
9,3.89,"O=C(/C=C/c1c(C(=O)O)[nH]c2cc(Cl)cc(Cl)c12)Nc1ccc(NC(=O)Nc2cccnc2)cc1 [Example 51, 4,6-dichloro-3-[(E)-2'-(4'-nicotin-3-ylureidophenylcarbamoyl)ethenyl]-1-H-indole2-carboxylic acid]"
10,5.01,"O=C(/C=C/c1c(C(=O)O)[nH]c2cc(Cl)cc(Cl)c12)Nc1ccc(NC(=O)NC2CCOCC2)cc1 [Example 52, 4,6-dichloro-3-[(E)-2'-(4'-(-tetrahydropyran-4""-yl)-ureidophenylcarbamoyl)ethenyl]-1-H-indole-2-carboxylic acid sodium salt]"
